Test results published in patent US12509460B2 (Skyhawk Therapeutics, Inc., priority 2019, dated 2025).
Read-outs that look alike come from different tables or passages of the source.

Experiments:
[1] = system: mHTT protein in GM04724 (CAG 70/20) Huntington's disease patient lymphoblast cells; assay: mHTT protein assay, 2B7-MW1 assay via Mesoscale Discovery (MSD); assay type: cell-based, human
Method in brief: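 Patient lymphoblasts treated 48 h with compound from 10 μM to 0.6 nM. mHTT quantified by MSD 2B7-MW1 immunoassay, whose signal depends on polyQ expansion and HTT size. Viability measured on a replicate plate by CellTiter Glo.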

[2] = system: MDR1-MDCK cell monolayers; settings: dog, MDCK-MDR1, 120 min, 5 μM, pH 7.4
MDR1 (P-gp) = assay: in vitro; settings: dog, MDCK-MDR1, pH 7.4
MDR1 = assay: in vitro; settings: dog, MDCK-MDR1, pH 7.4
[3] = system: SMN protein in spinal muscular atrophy (SMA) patient fibroblasts (GM03813, Coriell); assay: SMN protein assay, Mesoscale Discovery (MSD); assay type: cell-based, human; settings: for EC50: read-out: SMN2 protein EC50
Method in brief: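 SMA patient fibroblasts (GM03813) seeded at 7000 cells/well and exposed to compound at 2.5 μM to 0.6 nM for 48 hours. Lysates assayed for SMN by MSD immunoassay, with absolute SMN amount calculated from a per-plate SMN standard curve (1 μg/ml to 19.5 pg/ml).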

[4] = GM04724 Huntington's disease patient lymphoblasts
[5] = SMA patient fibroblasts GM03813, 48 hours, MSD
[6] = GM04724 (CAG 70/20) Huntington's disease patient lymphoblasts
[7] = SMA patient fibroblasts (GM03813), 48 hours

Row | SMILES | mHTT protein EC50 [1, 4] | MDCK-MDR1: % Recov A-B [2] [%] | MDCK-MDR1: % Recov B-A [2] [%] | Papp A→B at 120 min, 5 μM (MDR1 (P-gp)) [×10⁻⁶ cm/s] | Papp B→A at 120 min, 5 μM (MDR1 (P-gp)) [×10⁻⁶ cm/s] | efflux ratio at 120 min, 5 μM (MDR1) | SMN2 protein EC50 [3, 5] | mHTT protein EC50 [1, 6] | SMN2 protein EC50 [3, 7] | EC50 [1, 4] [nM] | EC50 [3, 5] [nM] | EC50 [3, 7] [nM]
1 | CCc1cn(-c2ccc(-c3ccc(N(C)[C@@H]4C[C@H]5CC(F)(F)[C@@H](C4)N5)nn3)c(O)c2)nn1 (single isomer, unassigned) [Compound 64A] | E (501 ≤ E ≤ 10.000) | 64 | 78 | 7.18 | 52.2 | 7 | E (501 ≤ E ≤ 10.000) |  |  |  |  | 
2 | CN(c1ccc(-c2ccc(C3CC3)cc2O)nn1)[C@@H]1C[C@H]2CC[C@H](N2)[C@@H]1F (single isomer, unassigned) [Compound 31A] | E (501 ≤ E ≤ 10.000) | 45 | 66 | 8.77 | 31.3 | 4 | E (501 ≤ E ≤ 10.000) |  |  |  |  | 
3 | CN1[C@@H]2CC[C@H]1[C@H](F)[C@H](N(c1ccc(-c3cc4oc(C(=O)N5CCC5)cc4cc3O)nn1)C1CC1)C2 (single isomer, unassigned) [Compound 92A] | E (501 ≤ E ≤ 10.000) | 93 | 88 | 1.23 | 57.8 | 47 | E (501 ≤ E ≤ 10.000) |  |  |  |  | 
4 | CN(c1ccc(-c2cc(F)c(-n3ccnn3)cc2O)nn1)[C@@H]1C[C@H]2CC[C@@H]([C@@H]1F)N2C [Compound 103A, 4-fluoro-2-(6-(((1S,2S,3R,5R)-2-fluoro-8-methyl-8-azabicyclo[3.2.1]octan-3-yl)(methyl)amino)pyridazin-3-yl)-5-(1H-1,2,3-triazol-1-yl)phenol] |  | 86 | 91 | 13.9 | 60.3 | 4 |  | E (501 ≤ E ≤ 10.000) | E (501 ≤ E ≤ 10.000) |  |  | 
5 | CCc1cn(-c2ccc(-c3ccc(N(C)[C@H]4C[C@@H]5CC(F)(F)[C@H](C4)N5)nn3)c(O)c2)cn1 [Compound 18B, 2-(6-(((1R,3S,5S)-6,6-difluoro-8-azabicyclo[3.2.1]octan-3-yl)(methyl)amino)pyridazin-3-yl)-5-(4-ethyl-1H-imidazol-1-yl)phenol] |  | 55 | 69 | 8.37 | 35.6 | 4 | E (501 ≤ E ≤ 10.000) |  |  | 101 to 500 |  | 
6 | CN(c1ccc(-c2cc3ncn(CC(F)(F)F)c(=O)c3cc2O)nn1)[C@@H]1C[C@H]2CC[C@@H]([C@@H]1F)N2C (single isomer, unassigned) [Compound 108A] |  | 82 | 91 | 1.51 | 73.7 | 49 |  | E (501 ≤ E ≤ 10.000) | E (501 ≤ E ≤ 10.000) |  |  | 
7 | Cc1nc2cc(-c3ccc(N(C)[C@@H]4C[C@H]5CC[C@@H]([C@@H]4F)N5C)nn3)c(O)cc2c(=O)n1CC(F)(F)F (single isomer, unassigned) [Compound 130A] |  | 105 | 116 | 0.67 | 75.4 | 113 |  | E (501 ≤ E ≤ 10.000) | E (501 ≤ E ≤ 10.000) |  |  | 
8 | CN(c1ccc(-c2ccc(C(F)F)cc2O)nn1)[C@@H]1C[C@H]2CC[C@H](N2)[C@@H]1F (single isomer, unassigned) [Compound 120A] |  | 76 | 74 | 4.59 | 34.8 | 8 |  | E (501 ≤ E ≤ 10.000) | E (501 ≤ E ≤ 10.000) |  |  | 
9 | CN(c1ccc(-c2cc3ccn(C)c(=O)c3cc2O)nn1)[C@@H]1C[C@H]2CC[C@@H]([C@@H]1F)N2C (single isomer, unassigned) [Compound 97A] | E (501 ≤ E ≤ 10.000) | 73 | 74 | 1.96 | 40.3 | 20 |  |  |  |  | 101 to 500 | 
10 | Cc1nc2cc(O)c(-c3ccc(N(C)[C@@H]4C[C@H]5CC[C@H](N5)C4F)nn3)cc2o1 (stereo in doubt) [Compound 40A, 6-(6-(((1S,2R,3R,5R)-2-fluoro-8-azabicyclo[3.2.1]octan-3-yl)(methyl)amino)pyridazin-3-yl)-2-methylbenzo[d]oxazol-5-ol] |  | 62 | 92 | 3.68 | 57.9 | 16 | E (501 ≤ E ≤ 10.000) |  |  | 101 to 500 |  | 
11 | Cc1cc(=O)c2cc(O)c(-c3ccc(N(C)[C@@H]4C[C@H]5CC[C@@H]([C@@H]4F)N5C)nn3)cc2o1 [Compound 99A, 7-(6-(((1S,2S,3R,5R)-2-fluoro-8-methyl-8-azabicyclo[3.2.1]octan-3-yl)(methyl)amino)pyridazin-3-yl)-6-hydroxy-2-methyl-4H-chromen-4-one] |  | 114 | 91 | 2 | 36.3 | 18 |  | E (501 ≤ E ≤ 10.000) |  |  |  | 101 to 500
12 | CN(c1ccc(-c2cc3ncn(CC(F)(F)F)c(=O)c3cc2O)nn1)[C@H]1C[C@@H]2CC(F)(F)[C@H](C1)N2 [Compound 59B, 7-(6-(((1R,3S,5S)-6,6-difluoro-8-azabicyclo[3.2.1]octan-3-yl)(methyl)amino)pyridazin-3-yl)-6-hydroxy-3-(2,2,2-trifluoroethyl)quinazolin-4(3H)-one] | E (501 ≤ E ≤ 10.000) | 107 | 101 | 2.97 | 84.2 | 28 | E (501 ≤ E ≤ 10.000) |  |  |  |  | 
13 | CN(c1ccc(-c2ccc(-n3ccnc3)cc2O)nn1)[C@H]1C[C@@H]2CC(F)(F)[C@H](C1)N2 [Compound 13B, 2-(6-(((1R,3S,5S)-6,6-difluoro-8-azabicyclo[3.2.1]octan-3-yl)(methyl)amino)pyridazin-3-yl)-5-(1H-imidazol-1-yl)phenol] |  | 90 | 97 | 9.96 | 55.7 | 6 | E (501 ≤ E ≤ 10.000) |  |  | 101 to 500 |  | 
14 | CN(c1ccc(-c2cc3ccn(C)c(=O)c3s2)nn1)[C@@H]1C[C@H]2CC[C@H](N2)[C@@H]1F (single isomer, unassigned) [Compound 67A] | E (501 ≤ E ≤ 10.000) | 94 | 99 | 0.42 | 37.9 | 90 | E (501 ≤ E ≤ 10.000) |  |  |  |  | 
15 | CN(c1ccc(-c2cnc(C#N)cc2O)nn1)[C@H]1C[C@@H]2CC[C@@H](N2)[C@H]1F (single isomer, unassigned) [Compound 71B] | E (501 ≤ E ≤ 10.000) | 90 | 89 | 5.04 | 20.9 | 4 | E (501 ≤ E ≤ 10.000) |  |  |  |  | 
